Legend:
Type in all cases: functional
[1] = tested on: Pseudomonas aeruginosa; assay: Antibacterial activity against permeable mutant Pseudomonas aeruginosa 2033E
[2] = tested on: Bacteroides fragilis; assay: Antibacterial activity against Bacteroides fragilis 2017E
[3] = tested on: Enterobacter cloacae; assay: Antibacterial activity against permeable beta-lactamase producing Enterobacter cloacae 3647
[4] = tested on: Enterococcus faecalis; assay: Antibacterial activity against Enterococcus faecalis 850
[5] = tested on: Staphylococcus aureus; assay: Antibacterial activity against penicillin sensitive Staphylococcus aureus 663E
[6] = tested on: Escherichia coli; assay: Antibacterial activity against wild Escherichia coli DC0
[7] = tested on: Staphylococcus aureus; assay: Antibacterial activity against methicillin resistant Staphylococcus aureus 1131
[8] = tested on: Proteus mirabilis; assay: Antibacterial activity against permeable beta-lactamase producing Proteus mirabilis 355
[9] = tested on: Haemophilus influenzae; assay: Antibacterial activity against Haemophilus influenzae 49247
[10] = tested on: Pseudomonas aeruginosa; assay: Antibacterial activity against Pseudomonas aeruginosa 2032E WT
[11] = tested on: Staphylococcus aureus; assay: Antibacterial activity against methicillin resistant Staphylococcus aureus COL
[12] = tested on: Clostridium perfringens; assay: Antibacterial activity against Clostridium perfringens 615E
[13] = tested on: Escherichia coli; assay: Antibacterial activity against permeable beta-lactamase producing Escherichia coli DC2 TEML
[14] = tested on: Escherichia coli; assay: Antibacterial activity against permeable Escherichia coli DC2
[15] = tested on: Staphylococcus aureus; assay: Antibacterial activity against beta-lactamase producing Staphylococcus aureus 853E
[16] = tested on: Pseudomonas aeruginosa; assay: Antibacterial activity against Pseudomonas aeruginosa 1911E

Work on `CC1(C)CCC2(C)CCC(C)(C)NC2=N1.CO[C@H]1CC[C@H]2C(=C(C(=O)O)N3C(=O)[C@H]([C@@H](C)O)[C@@H]23)C1` yielded an MIC [1] of 1 µg/mL, an MIC [2] of 1 µg/mL and an MIC [3] of 1 µg/mL. It also gave an MIC [4] of 4 µg/mL, an MIC [5] of 0.25 µg/mL and an MIC [6] of 1 µg/mL. It also gave an MIC [7] of 32 µg/mL, an MIC [8] of 4 µg/mL and an MIC [9] of 0.5 µg/mL. The MIC [10] was > 32 µg/mL, the MIC [11] was > 32 µg/mL and the MIC [12] was 0.5 µg/mL. For the same compound, the MIC [13] was 1 µg/mL, the MIC [14] was 1 µg/mL and the MIC [15] was 0.5 µg/mL. For the same compound, the MIC [16] was > 32 µg/mL.

`CC1(C)CCC2(C)CCC(C)(C)NC2=N1.CO[C@@H]1CC[C@H]2C(=C(C(=O)O)N3C(=O)[C@H]([C@@H](C)O)[C@@H]23)C1` showed an MIC [1] of 16 µg/mL, an MIC [2] of 32 µg/mL and an MIC [3] of 16 µg/mL. The MIC [4] was > 32 µg/mL, the MIC [5] was 1 µg/mL and the MIC [6] was 16 µg/mL. For the same compound, the MIC [7] was > 32 µg/mL, the MIC [8] was 32 µg/mL and the MIC [9] was 16 µg/mL. The MIC [10] was > 32 µg/mL, the MIC [11] was > 32 µg/mL and the MIC [12] was 8 µg/mL. It also gave an MIC [13] of 1 µg/mL, an MIC [14] of 0.5 µg/mL and an MIC [15] of 1 µg/mL. The MIC [16] was > 32 µg/mL.

`C[C@@H](O)[C@H]1C(=O)N2C(C(=O)O)=C(SCCNC=N)C[C@H]12.O` [IMIPENEM] was tested, and the MIC [1] was 0.5 µg/mL, the MIC [2] was 0.13 µg/mL and the MIC [3] was 2 µg/mL. For the same compound, the MIC [4] was 1 µg/mL, the MIC [5] was 0.13 µg/mL and the MIC [6] was 0.5 µg/mL. The MIC [7] was 4 µg/mL, the MIC [8] was 1 µg/mL and the MIC [9] was 1 µg/mL. The MIC [10] was 4 µg/mL, the MIC [11] was > 32 µg/mL and the MIC [12] was 0.06 µg/mL. For the same compound, the MIC [13] was 0.5 µg/mL, the MIC [14] was 0.5 µg/mL and the MIC [15] was 0.13 µg/mL. It also gave an MIC [16] of 4 µg/mL.

Reference: ChEMBL document CHEMBL1128062, “Tricyclic -lactams: total synthesis and antibacterial activity of 5- and 5-methoxy-tribactams” (1995)
